The record followed here is patent US11117900B2 (Vertex Pharmaceuticals Incorporated, priority 2012, dated 2021).

Molecules are shown by their SMILES.

For this experiment, the system named is HCT116 colorectal cancer cells. The experiment in a line: Cisplatin sensitization assay (96 h MTS cell viability).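 Note: compound concentration needed to lower the IC50 of Cisplatin alone by a set fold.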 The format is cell-based. To be noted: Cisplatin sensitization value. Put shortly:
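HCT116 cells were dosed simultaneously with compound and cisplatin as a full matrix of 2-fold serial dilutions from 10 μM top final concentration. Incubation was 96 h at 37° C., 5% CO2, followed by 1 h with MTS reagent for the viability read-out. Sensitization values were binned into +++, ++ and + categories.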
For `Cn1nncc1-c1ccncc1NC(=O)c1c(N)nn2cc(F)cnc12` [I-C-72, 2-amino-6-fluoro-N-(4-(1-methyl-1H-1,2,3-triazol-5-yl)pyridin-3-yl)pyrazolo[1,5-a]pyrimidine-3-carboxamide], the “Cisplatin Sensitization Assay” value is “+++ (Compounds with a Cisplatin sensitization value of <0.02 μM are marked with “+++.”)”. With `Nc1nn2cc(Cl)cnc2c1C(=O)Nc1cnccc1N1CCC(N2CCn3cncc3C2)CC1` [I-N-101, 2-amino-6-chloro-N-(4-(4-(5,6-dihydroimidazo[1,5-a]pyrazin-7(8H)-yl)piperidin-1-yl)pyridin-3-yl)pyrazolo[1,5-a]pyrimidine-3-carboxamide], the “Cisplatin Sensitization Assay” value was “++ (Compounds with a Cisplatin sensitization value >0.02 μM but <0.2 μM are marked with “++.”)”. Turning to `CC(C#N)c1cnc2c(C(=O)Nc3cnccc3N3CCN(C4COC4)CC3)c(N)nn2c1` (stereo not drawn) [I-N-143, 2-amino-6-(1-cyanoethyl)-N-(4-(4-(oxetan-3-yl)piperazin-1-yl)pyridin-3-yl)pyrazolo[1,5-a]pyrimidine-3-carboxamide], the “Cisplatin Sensitization Assay” value was “++ (Compounds with a Cisplatin sensitization value >0.02 μM but <0.2 μM are marked with “++.”)”.

As to `N#CC1CN(C(=O)C2CCN(c3c(F)cncc3NC(=O)c3c(N)nn4cc(F)cnc34)CC2)C1` [I-G-76, 2-amino-N-(4-(4-(3-cyanoazetidine-1-carbonyl)piperidin-1-yl)-5-fluoropyridin-3-yl)-6-fluoropyrazolo[1,5-a]pyrimidine-3-carboxamide], the “Cisplatin Sensitization Assay” value is reported as “+++ (Compounds with a Cisplatin sensitization value of <0.02 μM are marked with “+++.”)”.

`CN(C)C1CCN(C2CCN(c3ccncc3NC(=O)c3c(N)nn4cc(Cl)cnc34)CC2)C1` (stereo not drawn) [I-N-106, 2-amino-6-chloro-N-(4-(4-(3-(dimethylamino)pyrrolidin-1-yl)piperidin-1-yl)pyridin-3-yl)pyrazolo[1,5-a]pyrimidine-3-carboxamide]: the “Cisplatin Sensitization Assay” value is “+++ (Compounds with a Cisplatin sensitization value of <0.02 μM are marked with “+++.”)”. In the case of `Cn1cncc1-c1ccncc1NC(=O)c1c(N)nn2cc(F)cnc12` [I-C-56, 2-amino-6-fluoro-N-(4-(1-methyl-1H-imidazol-5-yl)pyridin-3-yl)pyrazolo[1,5-a]pyrimidine-3-carboxamide], the “Cisplatin Sensitization Assay” value is listed as “+++ (Compounds with a Cisplatin sensitization value of <0.02 μM are marked with “+++.”)”. Turning to `COC1CCN(C2CCN(c3ccncc3NC(=O)c3c(N)nn4cc(Cl)cnc34)CC2)C1` (stereo not drawn) [I-N-95, 2-amino-6-chloro-N-(4-(4-(3-methoxypyrrolidin-1-yl)piperidin-1-yl)pyridin-3-yl)pyrazolo[1,5-a]pyrimidine-3-carboxamide], the “Cisplatin Sensitization Assay” value was “++ (Compounds with a Cisplatin sensitization value >0.02 μM but <0.2 μM are marked with “++.”)”. Take `Cn1nccc1-c1ccncc1NC(=O)c1c(N)nn2cc(F)cnc12` [I-C-57, 2-amino-6-fluoro-N-(4-(1-methyl-1H-pyrazol-5-yl)pyridin-3-yl)pyrazolo[1,5-a]pyrimidine-3-carboxamide]: the “Cisplatin Sensitization Assay” value is reported as “+++ (Compounds with a Cisplatin sensitization value of <0.02 μM are marked with “+++.”)”. Under `CN1CCN(CC2CCN(c3c(F)cncc3NC(=O)c3c(N)nn4cc(F)cnc34)CC2)C(=O)C1` [I-N-193, 2-amino-6-fluoro-N-(5-fluoro-4-(4-((4-methyl-2-oxopiperazin-1-yl)methyl)piperidin-1-yl)pyridin-3-yl)pyrazolo[1,5-a]pyrimidine-3-carboxamide] stands “+++ (Compounds with a Cisplatin sensitization value of <0.02 μM are marked with “+++.”)”; under `CN1C[C@@H]2CCN(c3ccncc3NC(=O)c3c(N)nn4cc(F)cnc34)C[C@@H]2C1=O` [I-N-224, 2-amino-6-fluoro-N-(4-((3aR,7aR)-2-methyl-3-oxohexahydro-1H-pyrrolo[3,4-c]pyridin-5(6H)-yl)pyridin-3-yl)pyrazolo[1,5-a]pyrimidine-3-carboxamide], “+ (Compounds with a Cisplatin sensitization value >0.2 μM but <5 μM are marked with “+.”)”. As to `CN(C)CCOc1cc(Cl)ncc1NC(=O)c1c(N)nn2cc(Cl)cnc12` [I-O-68, 2-amino-6-chloro-N-(6-chloro-4-(2-(dimethylamino)ethoxy)pyridin-3-yl)pyrazolo[1,5-a]pyrimidine-3-carboxamide], the “Cisplatin Sensitization Assay” value is “++ (Compounds with a Cisplatin sensitization value >0.02 μM but <0.2 μM are marked with “++.”)”. Take `Nc1nn2cc(Cl)cnc2c1C(=O)Nc1cnccc1N1CCN2CCC[C@H]2C1` [I-N-71, (S)-2-amino-6-chloro-N-(4-(hexahydropyrrolo[1,2-a]pyrazin-2(1H)-yl)pyridin-3-yl)pyrazolo[1,5-a]pyrimidine-3-carboxamide]: the “Cisplatin Sensitization Assay” value is on record as “+++ (Compounds with a Cisplatin sensitization value of <0.02 μM are marked with “+++.”)”.

As for `Nc1nn2cc(F)cnc2c1C(=O)Nc1cncc(F)c1N1CCC(C(=O)NCCN2CCC2)CC1` [I-G-42, 2-amino-N-(4-(4-((2-(azetidin-1-yl)ethyl)carbamoyl)piperidin-1-yl)-5-fluoropyridin-3-yl)-6-fluoropyrazolo[1,5-a]pyrimidine-3-carboxamide], the “Cisplatin Sensitization Assay” value is recorded as “+++ (Compounds with a Cisplatin sensitization value of <0.02 μM are marked with “+++.”)”. With `Nc1nn2cc(F)cnc2c1C(=O)Nc1cncc(C2CC2)c1N1CCN([C@@H]2CCOC2)CC1` [I-N-119, (R)-2-amino-N-(5-cyclopropyl-4-(4-(tetrahydrofuran-3-yl)piperazin-1-yl)pyridin-3-yl)-6-fluoropyrazolo[1,5-a]pyrimidine-3-carboxamide], the “Cisplatin Sensitization Assay” value was “++ (Compounds with a Cisplatin sensitization value >0.02 μM but <0.2 μM are marked with “++.”)”.

Take `CN1CCN2CCN(c3ccncc3NC(=O)c3c(N)nn4cc(Cl)cnc34)CC2C1` (stereo not drawn) [I-N-61, 2-amino-6-chloro-N-(4-(8-methylhexahydro-1H-pyrazino[1,2-a]pyrazin-2(6H)-yl)pyridin-3-yl)pyrazolo[1,5-a]pyrimidine-3-carboxamide]: the “Cisplatin Sensitization Assay” value was “+++ (Compounds with a Cisplatin sensitization value of <0.02 μM are marked with “+++.”)”. For the compound `CN1CCCCC1C(=O)N1CCN(c2c(F)cncc2NC(=O)c2c(N)nn3cc(F)cnc23)CC1` (stereo not drawn) [I-N-214, 2-amino-6-fluoro-N-(5-fluoro-4-(4-(1-methylpiperidine-2-carbonyl)piperazin-1-yl)pyridin-3-yl)pyrazolo[1,5-a]pyrimidine-3-carboxamide], the “Cisplatin Sensitization Assay” value is “++ (Compounds with a Cisplatin sensitization value >0.02 μM but <0.2 μM are marked with “++.”)”.

As for `CN(C)CCN(C)C(=O)C1CCN(c2c(F)cncc2NC(=O)c2c(N)nn3cc(F)cnc23)CC1` [I-G-31, 2-amino-N-(4-(4-((2-(dimethylamino)ethyl)(methyl)carbamoyl)piperidin-1-yl)-5-fluoropyridin-3-yl)-6-fluoropyrazolo[1,5-a]pyrimidine-3-carboxamide], the “Cisplatin Sensitization Assay” value is “+++ (Compounds with a Cisplatin sensitization value of <0.02 μM are marked with “+++.”)”. Under `C[C@H]1CN(C2COC2)CCN1c1ccncc1NC(=O)c1c(N)nn2cc(F)cnc12` [I-N-24, (S)-2-amino-6-fluoro-N-(4-(2-methyl-4-(oxetan-3-yl)piperazin-1-yl)pyridin-3-yl)pyrazolo[1,5-a]pyrimidine-3-carboxamide] stands “+++ (Compounds with a Cisplatin sensitization value of <0.02 μM are marked with “+++.”)”.
